Columns and labels:
[1] = target: T1, human androgen receptor (hAR) (Homo sapiens, UniProt P10275); assay: Androgenic activity (transactivation in CHO cells transfected with hAR, MMTV-luciferase, compared with 5α-dihydrotestosterone); assay type: cell-based; parameters: key: (−) very weak activity found; (+) activity found; (++) high activity; (+++) excellent activity; details: rated by scheme
T1 construct: expressed in transfected cells; host or cells: CHO (Chinese hamster ovary) cells
T1 sequence (P10275 1-920): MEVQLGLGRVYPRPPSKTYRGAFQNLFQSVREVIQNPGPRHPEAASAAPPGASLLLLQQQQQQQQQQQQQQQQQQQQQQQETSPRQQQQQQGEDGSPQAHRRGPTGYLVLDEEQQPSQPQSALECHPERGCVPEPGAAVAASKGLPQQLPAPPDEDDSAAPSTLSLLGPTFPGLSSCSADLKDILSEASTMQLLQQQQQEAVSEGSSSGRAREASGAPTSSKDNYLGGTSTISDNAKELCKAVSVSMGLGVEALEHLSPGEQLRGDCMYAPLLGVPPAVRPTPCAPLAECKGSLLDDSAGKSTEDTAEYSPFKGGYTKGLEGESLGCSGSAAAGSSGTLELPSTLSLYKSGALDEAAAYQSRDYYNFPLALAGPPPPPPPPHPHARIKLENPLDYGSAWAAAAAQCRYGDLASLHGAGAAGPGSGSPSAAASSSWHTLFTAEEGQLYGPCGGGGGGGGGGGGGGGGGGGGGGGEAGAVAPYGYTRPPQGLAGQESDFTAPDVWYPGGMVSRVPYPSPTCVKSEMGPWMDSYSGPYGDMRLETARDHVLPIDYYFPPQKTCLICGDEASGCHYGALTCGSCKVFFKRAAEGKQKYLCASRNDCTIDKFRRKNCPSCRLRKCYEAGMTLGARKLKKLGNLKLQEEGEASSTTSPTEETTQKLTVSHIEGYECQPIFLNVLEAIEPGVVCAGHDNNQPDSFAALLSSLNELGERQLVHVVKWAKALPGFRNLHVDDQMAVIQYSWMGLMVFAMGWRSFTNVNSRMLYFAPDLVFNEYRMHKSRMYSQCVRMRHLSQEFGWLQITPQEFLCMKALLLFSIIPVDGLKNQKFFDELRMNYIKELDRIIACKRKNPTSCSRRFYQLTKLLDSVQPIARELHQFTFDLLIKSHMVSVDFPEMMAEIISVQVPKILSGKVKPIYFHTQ
Excerpt: Androgenic activity can be measured in various ways. Thus, the potency of androgens can be determined in vitro using the cytoplasmic androgen receptor from human breast tumor cells (MCF-7 cell line); see Bergink, E. W. et al, Comparison of the receptor binding properties of nandrolone and testosterone under in vitro and in vivo conditions, J. Steroid Biochem. 22, 831-836 (1985). […] The transactivative androgen activity of the compounds of the invention can be measured, e.g. in Chinese hamster ovary cells (CHO) transfected with the human androgen receptor (hAR), in combination with a mouse mammary tumor virus (MMTV), and luciferase receptor gene (incubation time 16 h, temperature 37° C.) and compared with the activity of 5α-dihydrotestosterone [according to the procedure described by Schoonen, W. G. E. J. et al, Analyt. Biochem. 261, 222-224 (1998)]. For the in vivo potency determination of androgens the classical Hershberger test can be used. In this test the androgenic (increase in prostate weight) and anabolic activities [increase of the musculus levator ani (MLA)] of a compound are tested in immature castrated rats after daily administration for 7 days; see Hershberger, L. G. et al, Myotrophic activity of 19-Nortestosterone and other steroids determined by modified levator ani muscle method, Proceedings of the society for experimental biology and medicine 83, 175-180 (1953). Additionally, the effect of an androgenic compound on LH suppression can be tested in mature castrated rats according to Kumar, N. et al, The biological activity of 7alpha-methyl-19-nortestosteione is not amplified in male reproductive tract as is that of testosterone, Endocrinology 130, 3677-3683 (1992).
(§1) The compounds according to the invention were tested for androgenic activity and for progestational activity (the procedures for which have been described above) and rated according to the following scheme: […]

[2] = target: T2, human progesterone receptor B (hPRB) (Homo sapiens, UniProt P06401); assay: Progestational activity (transactivation in CHO cells transfected with hPRB, MMTV-luciferase, compared with (16α)-16-ethyl-21-hydroxy-19-norpregn-4-ene-3,20-dione); assay type: cell-based; parameters: key: (−) very weak activity found; (+) activity found; (++) high activity; (+++) excellent activity; details: rated by scheme
T2 construct: expressed in transfected cells; host or cells: CHO (Chinese hamster ovary) cells
T2 sequence (P06401 1-933): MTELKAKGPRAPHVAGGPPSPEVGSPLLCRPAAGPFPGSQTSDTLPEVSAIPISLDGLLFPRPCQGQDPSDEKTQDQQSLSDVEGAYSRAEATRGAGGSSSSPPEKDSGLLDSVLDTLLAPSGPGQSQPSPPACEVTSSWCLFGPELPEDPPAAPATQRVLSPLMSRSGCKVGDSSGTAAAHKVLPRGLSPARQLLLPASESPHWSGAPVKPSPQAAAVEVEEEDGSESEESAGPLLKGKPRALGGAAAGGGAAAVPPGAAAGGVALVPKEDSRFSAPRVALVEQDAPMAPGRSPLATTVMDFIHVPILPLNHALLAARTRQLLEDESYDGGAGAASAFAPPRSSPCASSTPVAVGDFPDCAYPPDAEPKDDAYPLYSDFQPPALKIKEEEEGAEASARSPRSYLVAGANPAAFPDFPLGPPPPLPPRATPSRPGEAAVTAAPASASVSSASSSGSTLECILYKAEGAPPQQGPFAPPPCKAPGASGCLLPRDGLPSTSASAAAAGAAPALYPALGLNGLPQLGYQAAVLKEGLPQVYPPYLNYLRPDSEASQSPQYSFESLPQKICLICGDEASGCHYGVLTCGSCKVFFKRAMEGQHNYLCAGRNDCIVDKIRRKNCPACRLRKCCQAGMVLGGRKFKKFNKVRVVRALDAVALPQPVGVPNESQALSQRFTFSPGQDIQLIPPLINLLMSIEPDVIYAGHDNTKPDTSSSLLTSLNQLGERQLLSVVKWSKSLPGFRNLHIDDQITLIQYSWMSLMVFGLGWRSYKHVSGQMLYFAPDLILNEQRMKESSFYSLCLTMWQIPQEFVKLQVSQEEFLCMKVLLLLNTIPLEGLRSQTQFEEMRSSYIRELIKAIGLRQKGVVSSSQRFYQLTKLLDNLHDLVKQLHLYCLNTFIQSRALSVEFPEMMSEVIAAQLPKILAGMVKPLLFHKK
Procedure: The transactivative progestagenic activity of the compounds of the invention can be measured, e.g. in Chinese hamster ovary cells (CHO) transfected with the human progesterone receptor B (hPRB), in combination with a mouse mammary tumor virus (MMTV), and luciferase receptor gene (incubation time 16 h, temperature 37° C.) and compared with the activity of (16α)-16-ethyl-21-hydroxy-19-norpregn-4-ene-3,20-dione [according to the procedure described by Schoonen, W. G. E. J. et al, Analyt. Biochem. 261, 222-224 (1998)].
as §1

Structure (SMILES) | Androgenic activity [1] | Progestational activity [2] | melting point [°C]
CC[C@@H]1CC2=C(CC[C@H](O)C2)[C@H]2CC[C@@]3(C)C(=C(C)C[C@@H]3O)[C@H]12 [Example 8c, (3β,7α,17β)-7-ethyl-15-methylestra-5 (10),14-diene-3,17-diol] | Prodrug | Prodrug | 
CC[C@@H]1CC2=CC(=O)CC[C@@H]2[C@H]2CC[C@@]3(C)C(=C[C@@H](C)[C@@H]3O)[C@H]12 [Example 7b, (7α,16α,17β)-17-Hydroxy-7-ethyl-16-metliylestra-4,14-dien-3-one] | ++ | + | 
C[C@@H]1C=C2[C@@H]3CCC4=CC(=O)CC[C@@H]4[C@H]3CC[C@]2(C)[C@H]1O [Example 6a, (16α,17β)-17-Hydroxy-16-methylestra-4,14-dien-3-one] | + | + | 
C=C[C@@H]1CC2=CC(=O)CC[C@@H]2[C@H]2CC[C@@]3(C)C(=C[C@@H](C)[C@@H]3O)[C@@H]21 [Example 7c, (7α,16α,17β)-17-Hydroxy-16-methyl-7-vinylestra-4,14-dien-3-one] | ++ | + | 
C[C@H]1C=C2[C@@H]3CCC4=CC(=O)CC[C@@H]4[C@H]3CC[C@]2(C)[C@H]1O [Example 6b, (16β,17β)-17-hydroxy-16-methylestra-4,14-dien-3-one] | ++ | + | 
C[C@@H]1C=C2[C@H]3[C@H](CC[C@]2(C)[C@H]1O)[C@H]1CCC(=O)C=C1C[C@H]3C [Example 7a, (7α,16α,17β)-17-Hydroxy-7,16-dimethylestra-4,14-dien-3-one] | ++ | + | 
C[C@@H]1CC2=CC(=O)CC[C@@H]2[C@H]2CC[C@@]3(C)C(=CC[C@@H]3O)[C@@H]21 [Reference compound (Segaloff comp.*), (7α,17β)-7-methyl-17-hydroxyestra-4,14-dien-3-one, reference compound] | +++ | − | 
CCC1=C2[C@@H]3[C@H](CC)CC4=CC(=O)CC[C@@H]4[C@H]3CC[C@]2(C)[C@@H](O)C1 [Example 4, (7α,17β)-7,15-Diethyl-17-hydroxyestra-4,14-dien-3-one] | + | + | 
CC[C@]12CC[C@H]3[C@H](C1=C(C)C[C@@H]2O)[C@H](C)CC1=CC(=O)CC[C@@H]13 [Example 5, (7α,17β)-13-Ethyl-17-hydroxy-7,15-dimethylgona-4,14-dien-3-one] | ++ | + | 
CCC1=C2[C@H]3[C@H](CC[C@]2(C)[C@@H](O)C1)[C@H]1CCC(=O)C=C1C[C@H]3C [Example 2, (7α,17β)-15-Ethyl-17-hydroxy-7-methylestra-4,14-dien-3-one] | + | ++ | 
CC[C@@H]1CC2=C(CC[C@@H](O)C2)[C@H]2CC[C@@]3(C)C(=C(C)C[C@@H]3O)[C@H]12 [Example 8b, (3α,7α,17β)-7-ethyl-15-methylestra-5(10),14-diene-3,17-diol] | Prodrug | Prodrug | 
CC[C@@H]1CC2=C(CCC(=O)C2)[C@H]2CC[C@@]3(C)C(=C(C)C[C@@H]3O)[C@H]12 [Example 8a, (7α,17β)-7-Ethyl-17-hydroxy-15-methylestra-5(10),14-dien-3-one] | Prodrug | Prodrug | 
CC[C@@H]1CC2=CC(=O)CC[C@@H]2[C@H]2CC[C@@]3(C)C(=C(C)C[C@@H]3O)[C@H]12 [Example 3, (7α,17β)-7-Ethyl-17-hydroxy-15-methylestra-4,14-dien-3-one] | ++ | + | 
CC1=C2[C@H]3[C@H](CC[C@]2(C)[C@@H](O)C1)[C@H]1CCC(=O)C=C1C[C@H]3C [Example 1, (7α,17β)-17-Hydroxy-7,15-dimethylestra-4,14-dien-3-one] | ++ | ++ | 164 to 167
